pIC50: −log10 of the molar value.
Biological target: AT2 receptor (Homo sapiens (Human), UniProt P50052)
Assay: AT2 receptor binding ([125I]-CGP42112A radioligand, HEK293/AT2 receptor membranes)
Details: HEK293/AT2 receptor transient transfected cell membranes, RT 1.5 hrs
Method: • 1. Trypsin-EDTA (for preparation of 100 mL) • Trypsin 0.25 g • 2% EDTA 2 mL • PBS 98 mL • Dissolve trypsin in 2% EDTA and PBS completely; sterilize the solution by passing through a […] membrane filter; store at 4° C. • 2. DMEM medium (for preparation of 1 L) • The powder was dissolved into 950 mL of distilled water with gentle stirring until the solution becomes clear. • Add NaHCO3 1.176 g for DMEM medium. • Adjust pH of medium to 0.2-0.3 below final working pH using 1 M NaOH or 1 M HCl. Add slowly with stirring. • Dilute to 1 liter with ddH2O. • Sterilize the medium immediately by filtration. • Store at 4° C. • 3. TE buffer • 20 mM Tris-HCl, pH 7.4, • 5 mM EDTA • 4. Binding Assay Buffer • 50 mM Hepes, pH 7.4 • 5 mM MgCl2 • 1 mM CaCl2 • 0.2% BSA • 5. Wash Buffer • 50 mM Hepes, pH 7.4 Procedures for HEK293/AT2 Receptor Transient Cell Transfection • Cells were plated into 150 mm dish at 50% density for transient transfection. Cells were ready for transfection after overnight incubation (the confluence reaches around 80%). • 75 μL Lipofectamine™2000 diluted in 6.25 mL OptiMEM I Reduced Serum Medium, was mixed gently, and incubated at room temperature for 5 minutes. 50 μg expression plasmid DNA diluted in 6.25 mL OptiMEM I Reduced Serum Medium without serum was mixed gently. • After the 5 minute incubation, the diluted DNA was combined with the diluted Lipofectamine™2000 (total volume is 12.5 mL). The mixture was mixed gently and incubated for 30 minutes at room temperature to allow the DNA-Lipofectamine™2000 complexes to form. • The 12.5 mL DNA-Lipofectamine™2000 complexes were added into the 150 mm dish and mixed gently by rocking the dish back and forth. • The cells were incubated at 37° C. with 5% CO2 for 48 hours. • Cells were collected and stored frozen at −80° C. Procedures for HEK293/AT2 Receptor Cell Membrane Preparation • Frozen HEK293/AT2 receptor (transient transfected) cells were homogenized in ice cold TE buffer for 10 s. • The homogenate was centrifuged at 25,000 g for 30 minutes. • The pellet was resuspended in ice cold tissue buffer. • Protein concentrations were determined using Bradford assay method with BSA as standard. • The membrane protein was frozen under −80° C. Compound Preparation
Solutions of all compounds were prepared by microplate liquid handling equipment such as Janus or Precision 2000. Compounds, dissolved in DMSO were stored in a Freezer. Compounds were prepared from 30 mM in 100% DMSO.
Step 1: Dose Plate Preparation (96 Well Plate)
• Add the 3 μL [30 mM] compound stock to column 1 on the plate. • Add 15 μL of 100% DMSO to column 1. • Add 10.81 μL of 100% DMSO to column 2-12. • Transfer 5 μL from column 1 into column 2 (half log dilution). • Transfer 5 μL from column 2 into column 3 (half log dilution). • Transfer 5 μL from column 3 into column 4 (half log dilution). • Transfer 5 μL from column 4 into column 5 (half log dilution). • Transfer 5 μL from column 5 into column 6 (half log dilution). • Transfer 5 μL from column 6 into column 7 (half log dilution). • Transfer 5 μL from column 7 into column 8 (half log dilution). • Transfer 5 μL from column 8 into column 9 (half log dilution). • Transfer 5 μL from column 9 into column 10 (half log dilution) • Transfer 5 μL from column 10 into column 11 (half log dilution) • Transfer 5 μL from column 11 into column 12 (half log dilution). All the compounds were diluted using Precision 2000 microplate liquid handling equipment. The top concentration of compound was 5 mM with 100% DMSO. Step 2: Working Plate Preparation (96 Well Plate) • Compounds were diluted 50-fold with buffer. • 49 μL buffer was added to the well of 96 well plate. • 1 μL compound solution from dose plate was transferred to the corresponding well of working plate. • The top concentration of compound was 100 μM with 2% DMSO. Step 3: Assay Plate Preparation (96 Well Plate)
15 μL of compound solution was transferred from each well of working plate to the well of assay plate by Janus.

Sequence of AT2 receptor (P50052 whole entry, species assumed): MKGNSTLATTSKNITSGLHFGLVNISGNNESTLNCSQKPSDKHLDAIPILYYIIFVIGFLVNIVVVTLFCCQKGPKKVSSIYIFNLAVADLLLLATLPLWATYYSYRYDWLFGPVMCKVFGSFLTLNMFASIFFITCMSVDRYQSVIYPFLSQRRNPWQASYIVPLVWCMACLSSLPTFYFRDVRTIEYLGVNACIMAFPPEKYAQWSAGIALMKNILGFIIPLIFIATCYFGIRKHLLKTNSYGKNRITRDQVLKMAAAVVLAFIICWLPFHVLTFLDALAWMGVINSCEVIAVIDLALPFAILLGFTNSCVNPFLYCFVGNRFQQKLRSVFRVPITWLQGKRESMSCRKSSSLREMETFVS

| SMILES | pIC50 |
| --- | --- |
| CN(CCc1ccccc1)[C@H]1CCN(C(=O)C(c2ccccc2)c2ccccc2)[C@H](C(=O)O)C1 [Compound 35, (2S,4S)-1-(2,2-diphenylacetyl)-4-(methyl(3-phenethyl)amino)piperidine-2-carboxylic acid] | 7.00 |
| CN(Cc1ccccc1)[C@@H]1CCN(C(=O)C(c2ccccc2)c2ccccc2)[C@H](C(=O)O)C1 [Compound 38, (2S,4R)-4-(benzyl(methyl)amino)-1-(2,2-diphenylacetyl)piperidine-2-carboxylic acid] | 6.07 |
| O=C(O)[C@@H]1C[C@H](OCC#Cc2ccccc2)CCN1C(=O)C(c1ccccc1)c1ccccc1 [Compound 40, (2S,4R)-1-(2,2-diphenylacetyl)-4-((3-phenylprop-2-yn-yl)oxy)piperidine-2-carboxylic acid] | 6.64 |
| CC#CCN(C)[C@H]1CCN(C(=O)C(c2ccccc2)c2ccccc2)[C@H](C(=O)O)C1 [Compound 43] | 5.69 |
| CN(CC#CC(C)(C)C)[C@@H]1CCN(C(=O)C(c2ccccc2)c2ccccc2)[C@H](C(=O)O)C1 [Compound 54, (2S,4R)-4-((4,4-dimethylpent-2-yn-1-yl)(methyl)amino)-1-(2,2-diphenylacetyl)piperidine-2-carboxylic acid] | 7.47 |
| O=C(O)[C@@H]1C[C@H](N2CCC[C@H](c3ccccc3)C2)CCN1C(=O)C(c1ccccc1)c1ccccc1 [Compound 55, (2′S,3R,4′R)-1′-(2,2-diphenylacetyl)-3-phenyl-[1,4′-bipiperidine]-2′-carboxylic acid] | 6.53 |
| O=C(O)[C@@H]1C[C@@H](N2CCC[C@H](c3ccccc3)C2)CCN1C(=O)C(c1ccccc1)c1ccccc1 [Compound 56, (2′S,3R,4′R)-1-(2,2-diphenylacetyl)-3-phenyl-[1,4′-bipiperidine]-2′-carboxylic acid] | 6.96 |
| O=C(O)[C@@H]1C[C@H](N2CCC[C@@H](c3ccccc3)C2)CCN1C(=O)C(c1ccccc1)c1ccccc1 [Compound 57, (2′S,3S,4′R)-1′-(2,2-diphenylacetyl)-3-phenyl-[1,4′-bipiperidine]-2′-carboxylic acid] | 5.84 |
| O=C(O)[C@@H]1C[C@@H](N2CCC[C@@H](c3ccccc3)C2)CCN1C(=O)C(c1ccccc1)c1ccccc1 [Compound 58, (2′S,3S,4′S)-1′-(2,2-diphenylacetyl)-3-phenyl-[1,4′-bipiperidine]-2′-carboxylic acid] | 6.77 |

Continued by rising pIC50, values first:

| pIC50 | SMILES |
| --- | --- |
| 5.29 | CN(CCCc1ccccc1)[C@@H]1CCN(C(=O)C(c2ccccc2)c2ccccc2)[C@H](C(=O)O)C1 [Compound 31, (2S,4R)-1-(2,2-diphenylacetyl)-4-(methyl(phenylpropyl)amino)piperidine-2-carboxylic acid] |
| 5.57 | CN(CC#Cc1ccccc1)[C@H]1CCN(C(=O)C(c2ccccc2)c2ccccc2)[C@H](C(=O)O)C1 [Compound 33, (2S,4S)-1-(2,2-diphenylacetyl)-4-(methyl(3-phenylprop-2-yn-1yl)amino)piperidine-2-carboxylic acid] |
| 5.98 | CN(CC#Cc1ccc(F)cc1)[C@H]1CCN(C(=O)C(c2ccccc2)c2ccccc2)[C@H](C(=O)O)C1 [Compound 47, (2S,4S)-1-(2,2-diphenylacetyl)-4-((3-(4-fluorophenyl)prop-2-yn-1-yl)(methyl)amino)piperidine-2-carboxylic acid] |
| 6.04 | CN(CCc1ccccc1)[C@@H]1CCN(C(=O)C(c2ccccc2)c2ccccc2)[C@H](C(=O)O)C1 [Compound 34, (2S,4R)-1-(2,2-diphenylacetyl)-4-(methyl(3-phenethyl)amino)piperidine-2-carboxylic acid] |
| 6.07 | CC#CCN(C)[C@@H]1CCN(C(=O)C(c2ccccc2)c2ccccc2)[C@H](C(=O)O)C1 [Compound 42] |
| 6.19 | CN(Cc1ccccc1)[C@H]1CCN(C(=O)C(c2ccccc2)c2ccccc2)[C@H](C(=O)O)C1 [Compound 39, (2S,4S)-4-(benzyl(methyl)amino)-1-(2,2-diphenylacetyl)piperidine-2-carboxylic acid] |
| 6.66 | O=C(O)[C@@H]1CC(OCc2ccccc2)CCN1C(=O)C(c1ccccc1)c1ccccc1 (stereo partly drawn) [Compound 26, (2S)-4-(benzyloxy)-1-(2,2-diphenylacetyl)piperidine-2-carboxylic acid] |
| 6.68 | O=C(O)[C@@H]1Cc2c(c3ccccc3n2Cc2ccccc2)CN1C(=O)C(c1ccccc1)c1ccccc1 [Compound 1] |
| 6.80 | O=C(O)[C@@H]1Cc2c(ccc3c2Oc2ccccc2O3)CN1C(=O)C(c1ccccc1)c1ccccc1 [Compound 9, (S)-3-(2,2-diphenylacetyl)-1,2,3,4-tetrahydrobenzo[5,6][1,4]dioxino[2,3-f]isoquinoline-2-carboxylic acid] |
| 6.97 | CN(CC#Cc1ccccc1)[C@@H]1CCN(C(=O)C(c2ccccc2)c2ccccc2)[C@H](C(=O)O)C1 [Compound 32] |
| 7.00 | O=C(O)[C@@H]1C[C@H](OCCCc2ccccc2)CCN1C(=O)C(c1ccccc1)c1ccccc1 [Compound 41, (2S,4R)-1-(2,2-diphenylacetyl)-4-((3-phenylpropyl)oxy)piperidine-2-carboxylic acid] |
| 7.25 | CN(CC#Cc1ccc(F)cc1)[C@@H]1CCN(C(=O)C(c2ccccc2)c2ccccc2)[C@H](C(=O)O)C1 [Compound 46] |

From US9624234B2, “Heterocyclic compounds and methods for their use” (Novartis AG, priority 2012, dated 2017)
